Experimental findings from patent US20230089073A1 (Carmot Therapeutics, Inc., priority 2021, published 2023) are described below.

Structures are written as SMILES. Some results are limits rather than exact numbers.

This assay concerns the target T1, human GLP-1 receptor (Homo sapiens, UniProt P43220).
T1 construct: expressed in transfected cells
Put plainly: GLP-1R cAMP Assay. Particulars: cAMP accumulation in CHO cells stably overexpressing the human GLP-1 receptor; 30 min treatment; HitHunter cAMP kit; read-out: EC50. It counts as cell-based. The method, boiled down:
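Luminescent enzyme-complementation detection of cAMP, read after cell lysis and overnight incubation, with dose-response curve fitting. Stimulation lasted 30 min, using 20-point triplicate dosing on CHO cells (10,000 per well) stably overexpressing human GLP-1R.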
On the technique in general: cAMP levels reflect the balance of adenylyl cyclase and phosphodiesterase activity.

T1 sequence (P43220 24-463): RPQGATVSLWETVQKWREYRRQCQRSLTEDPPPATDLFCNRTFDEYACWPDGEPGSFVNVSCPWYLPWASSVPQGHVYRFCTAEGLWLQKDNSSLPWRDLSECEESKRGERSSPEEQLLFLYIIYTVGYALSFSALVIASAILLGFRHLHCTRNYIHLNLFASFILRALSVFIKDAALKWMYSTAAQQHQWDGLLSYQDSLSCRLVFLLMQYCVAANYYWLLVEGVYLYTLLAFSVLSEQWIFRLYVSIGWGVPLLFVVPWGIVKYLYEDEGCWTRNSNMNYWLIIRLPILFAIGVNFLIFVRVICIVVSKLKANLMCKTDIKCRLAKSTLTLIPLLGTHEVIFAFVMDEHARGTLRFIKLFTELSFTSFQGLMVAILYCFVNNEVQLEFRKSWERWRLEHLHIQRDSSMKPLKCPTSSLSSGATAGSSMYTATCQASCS

The EC50 is the concentration at which the effect is half-maximal. For `CCn1cncc1Cn1c(CN2CCC(Cc3ccnc(COc4ccc(Cl)cc4Cl)c3)CC2)nc2ccc(C(=O)O)cc21` [Example 128, 2-((4-((2-((2,4-Dichlorophenoxy)methyl)pyridin-4-yl)methyl)piperidin-1-yl)methyl)-1-((1-ethyl-1H-imidazol-5-yl)methyl)-1H-benzo[d]imidazole-6-carboxylic acid], the EC50 is less than 50 nM.

As for `C[C@H]1C[C@@H](Oc2ccnc(COc3ccc(F)cc3F)n2)CCN1Cc1nc2ccc(C(=O)O)cc2n1C[C@@H]1CCO1` [Compound 485, 2-{[(2S,4S)-4-({2-[(2,4-difluorophenoxy)methyl]pyrimidin-4-yl}oxy)-2-methylpiperidin-1-yl]methyl}-1-{[(2S)-oxetan-2-yl]methyl}-1H-1,3-benzodiazole-6-carboxylic acid], the EC50 was less than 50 nM.

In the case of `CC(Oc1ccc(C#N)cc1F)c1nccc(OC2CCN(Cc3nc4ccc(C(=O)O)cc4n3C[C@@H]3CCO3)CC2)n1` (mixture of isomers) [Example 480, 2-((4-((2-(1-(4-Cyano-2-fluorophenoxy)ethyl)pyrimidin-4-yl)oxy)piperidin-1-yl)methyl)-1-(((S)-oxetan-2-yl)methyl)-1H-benzo[d]imidazole-6-carboxylic acid], the EC50 is 50 to 500 nM.

In the case of `O=C(O)c1ccc2nc(CN3CCC(Oc4ccnc(COc5ccc(Cl)cc5CF)c4)CC3)n(C[C@@H]3CCO3)c2c1` [Example 299, (S)-2-((4-((2-((4-Chloro-2-(fluoromethyl)phenoxy)methyl)pyridin-4-yl)oxy)piperidin-1-yl)methyl)-1-(oxetan-2-ylmethyl)-1H-benzo[d]imidazole-6-carboxylic acid], the half-maximal effective concentration (EC50) was less than 50 nM.

Regarding `Cc1ccccc1OCc1ccc(C(=O)N2CCN(Cc3nc4ccc(C(=O)O)cc4n3C[C@@H]3CCO3)CC2)o1` [Compound 43, 2-[(4-{5-[(2-methylphenoxy)methyl]furan-2-carbonyl}piperazin-1-yl)methyl]-1-{[(2S)-oxetan-2-yl]methyl}-1H-1,3-benzodiazole-6-carboxylic acid], the EC50 was greater than 500 nM.

On to `O=C(O)c1cc(F)c2nc(CN3CCC(Oc4cccc(COc5ccc(C(F)F)cc5F)c4)CC3)n(CC3(CF)CC3)c2c1` [Compound 303], for which the EC50 is less than 50 nM.

On to `CCn1cncc1Cn1c(CN2CCC(Oc3cc(COc4ccc(Cl)cc4Cl)ccn3)CC2)nc2ccc(C(=O)O)cc21` [Compound 179, 2-{[4-({4-[(2,4-dichlorophenoxy)methyl]pyridin-2-yl}oxy)piperidin-1-yl]methyl}-1-[(1-ethyl-1H-imidazol-5-yl)methyl]-1H-1,3-benzodiazole-6-carboxylic acid], for which the 50% effective concentration (EC50) was less than 50 nM.

As to `C[C@H]1C[C@@H](Oc2ccnc(COc3ccc(F)cc3F)c2)CCN1Cc1nc2ccc(C(=O)O)cc2n1C[C@@H]1CCO1` [Compound 497, 2-{[(2S,4S)-4-({2-[(2,4-difluorophenoxy)methyl]pyridin-4-yl}oxy)-2-methylpiperidin-1-yl]methyl}-1-{[(2S)-oxetan-2-yl]methyl}-1H-1,3-benzodiazole-6-carboxylic acid], the EC50 was less than 50 nM.

Consider `N#Cc1ccc(OCc2nccc(OC3CCN(Cc4nc5c(F)cc(C(=O)O)cc5n4C[C@@H]4CCO4)CC3)n2)c(F)c1` [Compound 328], for which the concentration giving a half-maximal response (EC50) was less than 50 nM.

For `CCn1cncc1Cn1c(CN2CCC(Oc3cccnc3COc3ccc(Cl)cc3Cl)CC2)nc2ccc(C(=O)O)cc21` [Example 271, 2-((4-((2-((2,4-Dichlorophenoxy)methyl)pyridin-3-yl)oxy)piperidin-1-yl)methyl)-1-((1-ethyl-1H-imidazol-5-yl)methyl)-1H-benzo[d]imidazole-6-carboxylic acid], the EC50 lay in the range of 50 to 500 nM.

On to `Cn1cncc1Cn1c(CN2CCC(Oc3cccc(COc4ccc(Cl)cc4F)n3)CC2)nc2ccc(C(=O)O)cc21` [Compound 264, 2-{[4-({6-[(4-chloro-2-fluorophenoxy)methyl]pyridin-2-yl}oxy)piperidin-1-yl]methyl}-1-[(1-methyl-1H-imidazol-5-yl)methyl]-1H-1,3-benzodiazole-6-carboxylic acid], for which the concentration for a half-maximal effect (EC50) is less than 50 nM.
